Experimental data published in patent publication US9381142B2, “Olfactory adaptation and cross-adapting agents to reduce the perception of body odors” (Monell Chemical Senses Center, priority 2002, dated 2016).

Legend:
[1] = test system: male stress-derived axillary odor; experiment: Cross-adaptation of male stress-derived axillary odor (odor panel, magnitude estimation of perceived intensity); type: in vivo, human; conditions: for Magnitude of Reduction of Intensity of Male Stress-Derived Odor (MSDO), Males: male stress-derived odor perceived by men; for Magnitude of Reduction of Intensity of Male Stress-Derived Odor (MSDO), Females: male stress-derived odor perceived by women
Source text: (§1) The procedure relies upon an individual constantly sniffing an adapting agent, such as a fragrance, and occasionally a test odorant. Perceived intensity of the test odorant is obtained by using psychophysical, magnitude-estimation procedures. These perceived intensities are obtained every 30 seconds over the test period, and are then compared with baseline perceived intensities obtained before the individual began sniffing the adapting agent. Throughout the testing we observe adaptation to the adapting agent. Results during trials with an inserted test odorant, such as the axillary odor used here, are believed to be reasonably predictive. If the perceived intensity of the test odorant decreases during the test, then the adapting agent cross-adapts the test odorant and becomes a cross-adapting agent. If the cross-adapting agent is itself not offensive, then the cross-adapting agent becomes a candidate for use in formulations in consumer products to ameliorate malodors, such as axillary odor or fecal/urine odors, and odors related to the female menstrual cycle.
(§2) Collection of secretions: Apocrine secretions obtained under stressed conditions provided the axillary odor that was used as the test odorant to evaluate the effectiveness of various adapting agents. Secretions were obtained from males (ages 20 to 60 years) and females (ages 20 to 40 years) in good health. […] Volunteers prepared their axillae for collection of apocrine secretions by refraining from deodorant use for 3 days and shaving their axillae the morning of the collection day.
(§3) Volunteers were rested in a supine position. The axillary regions were washed with isopropanol-soaked pads and injected intradermally with 1:10,000 adrenalin (in physiologic saline). This injection stimulated the secretion of apocrine gland secretions, which were collected in 10 μl pipettes, passed into 0.25 ml Eppendorf tubes, and stored on ice (or frozen for longer storage). The amount of secretion collected varied greatly with the individual subject (≦10 μl). The apocrine secretions from each volunteer were combined by consecutively washing each Eppendorf tube with 2×300 μl of doubly distilled water. This aqueous-apocrine fluid was transferred to a 5 ml round-bottomed flask for hydrolysis. X-N. Zeng, J. J. Leyden, J. G. Brand, A. I. Spielman, K. J. McGinley, G. Preti, An Investigation of Human Apocrine Gland Secretion for Axillary Odor Precursors, 18 J. Chem. Ecol. 1039-1055 (1992); X-N. Zeng, J. J. Leyden, A. I. Spielman and G. Preti Analysis of the characteristic human female axillary odors: Qualitative comparison to males. 22 J. Chem. Ecol. 237-257 (1996).
(§4) Production of odor: To produce quantities of stress-derived axillary odor for testing purposes, we hydrolyzed the apocrine secretion. The aqueous solution was refluxed for 20 min with 0.5 ml, 5% aqueous sodium hydroxide under a stream of nitrogen. The mixture was allowed to cool to room temperature, and then it was cooled in ice prior to being acidified with 6 N HCl to pH 2. The resulting axillary odor developed in the reaction mixture upon acidification was used as the test odorant. The axillary odors generated by this in vitro technique are analogous to the malodors produced by stressed individuals.
Sixteen (16) individuals (8 of each gender) served on an odor panel. Subjects ranged in age from 22 to 55 years (mean 32.7±10.6 s.d.), were not pregnant (by verbal report), and were all non-smokers. All panel members were screened for adequate use of magnitude estimation (some people have difficulties maintaining a ratio scale, i.e., when an odorant is half as strong as the previous, these people fail to provide a number that is half the previous estimate) and further trained in its use during 2-3 training sessions. All 16 subjects were tested with samples of male malodor compared to each of the potential cross-adapting agents. […]

[2] = test system: female stress-derived axillary odor; experiment: Cross-adaptation of female stress-derived axillary odor (odor panel, magnitude estimation of perceived intensity); type: in vivo, human; conditions: for Magnitude of Reduction of Intensity of Female Stress-Derived Odor (FSDO), Males: female stress-derived odor perceived by men; for Magnitude of Reduction of Intensity of Female Stress-Derived Odor (FSDO), Females: female stress-derived odor perceived by women
Source text: as §1, §2, §3, §4
A separate panel of 24 subjects (12 males and 12 females) tested samples of female stress-derived axillary odor with potential cross-adapting agents, some of which were not included in Example 1 above. Some of the subjects assessing the effectiveness of cross-adaptation of male stress-derived axillary odor were also used in the experiment with female secretions. However, these two experiments were treated as independent events. All panel members were screened for adequate use of magnitude estimation and further trained in its use during two to three training sessions. […]
Further: key: best: Best = Superior Cross-Adaptation; good: Good = Adequate Cross-Adaptation; poor: Poor = Ineffective Cross-Adaptation.

Row | Compound | Magnitude of Reduction of Intensity of Male Stress-Derived Odor (MSDO), Males [1] | Magnitude of Reduction of Intensity of Male Stress-Derived Odor (MSDO), Females [1] | Magnitude of Reduction of Intensity of Female Stress-Derived Odor (FSDO), Males [2] | Magnitude of Reduction of Intensity of Female Stress-Derived Odor (FSDO), Females [2] | Magnitude of Reduction of Intensity of Male Stress-Derived Odor (MSDO), Males ([1]; listed as Z-isomer 3-methyl-2-pentenoic acid ethyl ester)
1 | CC(=O)OC1CCCCC1C(C)(C)C (stereo not drawn) [Agrumex, 2-tert-butyl cyclohexyl acetate] | good | poor | poor | best | 
2 | C=CCCC(=O)C1=CCCC(C)(C)C1 [Dynascone 10, 1-(5,5-dimethyl-1-cyclohexen-1-yl)4-penten-1-one] | best | poor | good | good | 
3 | C=CC(C)CCCC(C)(C)O (stereo not drawn) [Dihydromyrcenol, 2,6-dimethyl-7-octen-2-ol] | best | good | best | good | 
4 | CC(=O)O[C@@H]1C[C@H](C)CC[C@H]1C(C)C [Menthyl Acetate rf, 4-menthyl-3-yl acetate] | best | poor | good | good | 
5 | CCCCCC(C)=CC(=O)OCC (single isomer, unassigned) [E-, Z-isomers (3:1) of 3-methyl-2-octenoic acid ethyl esters, 3-methyl-2-octenoic acid ethyl esters] | best | best | best | best | 
6 | CC(C)=CCC(C)(C)C(=O)C(C)C [CLARITONE ®, 2,4,4,7-tetramethyl-oct-6-en-3-one] | best | best | best | good | 
7 | CC(C)=CCCC(C)CCO (stereo not drawn) [Citronellol 950, 3,7-dimethyl-6-octen-1-ol] | good | good | good | good | 
8 | CCOC(=O)C=C(C)CC (single isomer, unassigned) [Z-isomer of 3-methyl-2-pentenoic acid ethyl ester, 3-methyl-2-pentenoic acid ethyl ester] | best | poor | poor | poor | best
9 | O=C1CCCCCCCC=CCCCCCCO1 [Ambrettolide, oxacycloheptadec-10-en-2-one] | poor | poor | poor | good | 
10 | CCCCCCCC1CCC(=O)O1 (stereo not drawn) [C14 Aldehyde, gamma-undecalactone] | good | poor | good | good | 
11 | CC1=CC(C)C(C=O)CC1 (stereo not drawn) [Vertocitral, 2,4-dimethyl-3-cyclohexene-1-carboxaldehyde] | good | best | best | best | 
12 | CCCCCC1C(=O)CCC1CC(=O)OC (stereo not drawn) [HEDIONE ®, methyl dihydro jasmonate] | poor | poor | poor | poor | 
13 | CC1CC(C)(c2ccccc2)OC(C)O1 (stereo not drawn) [Floropal, 2,4,6-trimethyl-4-phenyl-1,3-dioxane] | good | poor | best | best | 
14 | OCCc1ccccc1 [Phenylethyl Alcohol, phenylethyl alcohol] | good | good | good | poor | 
15 | CC/C=C\CCO [Cis-3-Hexenol, cis-3-hexenol-1-ol] | good | good | best | good | 
16 | CC(=O)OC1CCC(C(C)(C)C)CC1 (stereo not drawn) [Oryclone Special, 4-tertbutylcyclohexyl acetate] | good | poor | best | poor | 
17 | oxacyclohexadecen-2-one [GLOBALIDE ®] | good | poor | poor | good | 
18 | CC=CC(=O)C1C(C)=CCCC1(C)C (stereo not drawn) [α-Damascone, 1-(2,6,6-trimethyl-2-cyclohexen-1-yl)-2-buten-1-one] | poor | poor | poor | good | 
19 | CC(C)=CCCC(C)CCCC(C)C=O (stereo not drawn) [FARENAL ®, 2,6,10-trimethyl-9-undecenal] | poor | poor | good | poor | 
20 | CC(=O)C1(C)CC2=C(CCCC2(C)C)CC1C (stereo not drawn) [ISO E SUPER ®, octahydro-2,3,8,8-tetramethyl-2-acetonaphthone] | poor | poor | poor | poor | 
